Experiments:
Assay type in all cases: biochemical
McDAH = target: T1, McDAH (Menispermum canadense, UniProt A0A6M3RHU8); assay: in vitro enzyme assay, LC-MS; conditions: 2OG-dependent chlorination, 1 mM NaCl
T1 sequence (A0A6M3RHU8 1-351): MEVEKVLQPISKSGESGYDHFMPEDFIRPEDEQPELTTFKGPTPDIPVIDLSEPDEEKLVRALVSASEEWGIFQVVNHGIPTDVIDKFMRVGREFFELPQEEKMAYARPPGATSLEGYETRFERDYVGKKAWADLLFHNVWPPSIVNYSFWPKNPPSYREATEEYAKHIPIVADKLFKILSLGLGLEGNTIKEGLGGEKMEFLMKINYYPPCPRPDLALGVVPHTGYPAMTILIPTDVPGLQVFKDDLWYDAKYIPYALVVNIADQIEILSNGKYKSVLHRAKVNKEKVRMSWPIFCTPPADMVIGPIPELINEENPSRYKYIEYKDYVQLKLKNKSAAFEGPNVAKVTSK

SaDAH [1] = target: T2, SaDAH (Sinomenium acutum, UniProt A0A6M3RD65); assay: LC-MS quantification of (−)-acutumine formed; conditions: 2OG 500 µM, NaCl 1 mM, ascorbate 5 mM, (NH4)2Fe(SO4)2 2 mM; 30 nM enzyme, 10 min; chlorination
T2 construct: codon-optimized, N-terminal 8xHis-TEV tag (pHis8-4) cleaved, E. coli BL21(DE3)

SaDAH [2] = target: T3, SaDAH (Sinomenium acutum, UniProt A0A6M3RD65, G226D); assay: in vitro enzyme assay, LC-HRAM-MS; conditions: 2OG 500 µM, NaCl 1 mM, Fe(II) 2 mM, ascorbate 5 mM, Tris pH 8.0, room temperature; hydroxylation
T3 construct: codon-optimized, N-terminal 8xHis-TEV tag (pHis8-4) cleaved, E. coli BL21(DE3)
T3 sequence (A0A6M3RD65 entry or part of it G226D): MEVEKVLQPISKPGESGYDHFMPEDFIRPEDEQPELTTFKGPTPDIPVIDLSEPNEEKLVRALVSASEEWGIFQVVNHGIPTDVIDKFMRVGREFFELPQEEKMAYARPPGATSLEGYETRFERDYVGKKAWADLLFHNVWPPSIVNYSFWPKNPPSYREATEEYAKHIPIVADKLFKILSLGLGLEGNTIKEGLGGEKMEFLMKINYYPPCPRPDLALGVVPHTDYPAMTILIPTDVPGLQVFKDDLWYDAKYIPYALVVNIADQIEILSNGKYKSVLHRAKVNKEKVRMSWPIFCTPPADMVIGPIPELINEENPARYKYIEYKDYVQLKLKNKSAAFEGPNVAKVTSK

T2 sequence (A0A6M3RD65 entry or part of it): as the sequence (A0A6M3RD65 entry or part of it G226D) above, with D226G counted along it

COC1=CC(=O)C2(CCC34C(OC)=C(OC)C(=O)CC23CCN4C)C1O (single isomer, unassigned; (-)) [compound 5, (−)-dechloroacutumine]
in vitro enzyme assay, LC-MS (McDAH): Recombinant McDAH exhibits identical activity to SaDAH
Km (SaDAH [1]): 18.4 ± 7.13 µM
in vitro enzyme assay, LC-HRAM-MS (SaDAH [2]): exhibits exclusive (−)-dechloroacutumine hydroxylase activity to give the hydroxylation product 11-hydroxy-dechloroacutumine

Reference: paper PMC7170919, “The chloroalkaloid (−)-acutumine is biosynthesized via a Fe(II)- and 2-oxoglutarate-dependent halogenase in Menispermaceae plants” (Nature Communications, 2020)
